Reference: patent US4500544A, “Ascochlorin derivatives, and pharmaceutical composition containing the same” (Chugai Seiyaku Kabushiki Kaisha, priority 1981, dated 1985)

How the values were obtained:
[1] = tested on: hepatic lipogenesis in streptozotocin-diabetic mice; test: hepatic lipogenesis in streptozotocin-diabetic mice; format: in vivo; details: oral, a week; untreated diabetic controls one half of normal
Description: Potentiation of insulin action by the compounds of the present invention is corroborated by restoration of hepatic lipogenesis in streptozotocin-diabetic mice. Streptozotocin diabetic mice greatly deteriolate hepatic lipogenesis due to insulin deficiency.

Ehrlich ascites tumor = test: life span of mice with Ehrlich ascites tumor (Example 22); format: in vivo, ddY male mice; details: 2 mg i.p. once a day for 7 days
Procedure: 10^6 Cells of Ehrlich ascites tumor were transplanted in five-week-old ddY male mice and from the 24th hour onward, they were injected intraperitoneally the compounds indicated in Table 4 of the present invention once a day for 7 consecutive days. Each injection contained 2 mg of the test compounds. The efficacy of the compounds is indicated in Table 4 in terms of their life span.

[2] = tested on: adipocytes of streptozotocin-diabetic rats; test: adipocytes from orally treated streptozotocin-diabetic rats; format: in vivo; details: oral once daily for 2 weeks
Procedure: The mechanism of action of the compounds of the present invention was evaluated using adipocytes derived from diabetic animals which orally received the compounds for a given period.

[3] = tested on: Hereditary obese diabetic mice C 57BL/Ksj (db^+ /db^+); test: hereditary obese diabetic mice, diet with 0.1% compound (Example 20); format: in vivo, mouse
Procedure: The amounts of the diet taken drinking water, urine volume and urine glucose excreted were measured daily. The results are indicated in Table 2 in terms of mean value±standard error.

L-1210 leukemia = test: prevention of L-1210 leukemia by pretreatment one week before transplantation (Example 23); format: in vivo, BDF1 female mice; details: 2 mg i.p. one week before 10^2 cells
Procedure: Four-week-old BDF1 female mice were injected intraperitoneally with suspensions of 2 mg of 4-O-hydroxycarbonylmethyl ester of ascochlorin in 1% tragacanth gum. A control group was injected only with 1% tragacanth gum. One week later, 10^2 cells of L-1210 leukemia were transplanted in the mice.

[4] = tested on: adipocytes of hereditary obese diabetic mouse, strain C 57BL/KsJ (db^+ /db^+); test: adipocytes from orally treated hereditary obese diabetic mice; format: in vivo; details: oral, 1 week
Description: The hereditary obese diabetic mouse, strain C 57BL/KsJ (db^+ /db^+), is an excellent model of human type II diabetes mellitus.

[5] = plasma glucose and cholesterol in normal mice fed the compounds (Example 19); format: in vivo, ddY male mice; details: 0.1% in diet, one week, n=10
Procedure: Five-week-old ddY male mice (n=10) were given for one week a diet (CE-2 from Nippon Crea Co., Ltd.) containing 0.1% of the sample compounds of the present invention indicated in Table 1. Blood was then withdrawn from the heart and the glucose and cholesterol levels in plasma were measured.

[6] = tested on: Hereditary obese diabetic mice C 57BL/Ksj (db^+ /db^+); test: hereditary obese diabetic mice, diet with 0.05% compound, intake and urine (Example 24); format: in vivo, mouse
Procedure: Hereditary obese diabetic mice C 57BL/Ksj (db^+ /db^+), 12 weeks old, were fed commercial pellet diet (CE-2 from Nippon Crea Co., Ltd.) for a week and they were treated with CE-2 pellet containing 0.05% of 4-O-nicotinoylascochlorin for a week. The daily amounts of the diet intake, drinking water, urine volume and urine glucose excreted were measured before and during the treatment.

[7] = tested on: streptozotocin diabetic ddY mice; test: streptozotocin-diabetic mice, plasma glucose and lipid (Example 26); format: in vivo, ddY male mice
Procedure: Five-week-old ddY male mice […] were injected intraperitoneally 150 mg/kg of streptozotocin, and after 24 hours onward, they were given for one week a diet (CE-2 from Nippon Crea Co., Ltd.) containing 0.05% of 4-O-nicotinoyl ascochlorin. A control group was given only CE-2. On the 7th day, the animals were sacrificed and the levels of glucose and lipid in their plasma were measured.

[8] = tested on: Hereditary obese diabetic mice C57BL/Ksj (db^+ /db^+); test: hereditary obese diabetic mice, plasma glucose and lipid (Example 27); format: in vivo, mouse
Procedure: Hereditary obese diabetic mice C57BL/Ksj (db^+ /db^+) were given for one week a diet (CE-2 from Nippon Crea Co., Ltd.) containing 0.05% of 4-O-nicotinoyl ascochlorin. A control group of the same age was given only CE-2. One week later, the animals were sacrificed and the levels of plasma glucose and lipid were measured.

[9] = serum lipid and glucose in normal mice fed the compounds (Example 25); format: in vivo, ddY male mice
Procedure: Five-week-old ddY male mice were given for one week a diet (CE-2 from Nippon Crea Co., Ltd.) containing 0.05% of the compounds of the present invention indicated in Table 7. On the 7th day, the mice were sacrificed and the levels of lipid and glucose in their serum were measured.

[10] = tested on: circulatory system of mammals; details: background; cited from earlier work
[11] = background; cited from earlier work
[12] = systemic or oral administration; cited from earlier work
[13] = background; cited from earlier work; remark: listed apart in the source
[14] = vs one week prior to administration

SMILES: CC(/C=C/C1(C)C(C)CCC(=O)C1C)=C\Cc1c(O)c(C=O)c(C)c(Cl)c1OCC(=O)O (centres unmarked) [Example 4, 4-O-carboxymethyl ascochlorin]
- incorporation of acetate into hepatic total fatty acid and triglyceride [1]: restored to normal control levels
- Days survived (Ehrlich ascites tumor; n=8, control 15.5 ± 2.12): > 25.3 ± 4.65 days
- T/0 (%) (Ehrlich ascites tumor; control 100): 163%
- 2-deoxyglucose uptake, and conversion of glucose to carbon dioxide and lipids in adipocytes [2]: greatly increased
- ^125 I-insulin binding to adipocytes ([2]; vs normal and diabetic control): increased ^125 I-insulin binding to adipocytes above normal and diabetic control levels
- urine volume ([3]; 0.1% in diet, one week administration, prior 5.95 ± 0.20, n=10): 2.07 ± 0.23 ml/mouse/day
- diet intake ([3]; 0.1% in diet, one week administration, prior 6.35 ± 0.13, n=10): 6.37 ± 0.28 g/mouse/day
- drinking water ([3]; 0.1% in diet, one week administration, prior 14.7 ± 0.3, n=10): 10.4 ± 0.3 ml/mouse/day
- urine glucose concentration ([3]; 0.1% in diet, one week administration, prior 97.4 ± 3.4, n=10): 52.9 ± 5.52 mg/mL
- urine glucose ([3]; 0.1% in diet, one week administration, prior 579.5 ± 21.1, n=10): 106.8 ± 19.5 mg/mouse/day
- drinking water, change [3, 14]: -29.3%
- urine glucose concentration, change [3, 14]: -45.7%
- urine glucose, change [3, 14]: -81.5%
- urine volume, change [3, 14]: -65.2%
- Survived 50 days or more (L-1210 leukemia; control 0, P < 0.01): 7
- Died (L-1210 leukemia; control 20 died): 13
- 2-deoxyglucose uptake, and conversion of glucose to carbon dioxide and lipid [4]: increased
- increment in ^125 I-insulin binding to adipocytes ([4]; above age-matched untreated diabetic controls): 1.5-3.0 fold
- total cholesterol in plasma ([5]; control 135.9 ± 4.8): 107.9 ± 4.5 mg/dL
- plasma glucose ([5]; control 271.6 ± 0.4): 217.6 ± 12.2 mg/dL

SMILES: CC(/C=C/C1(C)C(C)CCC(=O)C1C)=C\Cc1c(O)c(C=O)c(C)c(Cl)c1OC(=O)c1cccnc1 (centres unmarked) [Example 11, 4-O-nicotinoyl ascochlorin]
- incorporation of acetate into hepatic total fatty acid and triglyceride [1]: restored to normal control levels
- polydipsia, polyuria and urine glucose excretion (in words) ([6]; 0.05% in diet, one week): improved polydipsis and polyurea and inhibited excretion of urine gluclose
- urine volume ([6]; 0.05% in diet, one week, n=5, control period 8.60 ± 0.35): 5.20 ± 0.36 ml/mouse/day
- drinking water ([6]; 0.05% in diet, one week, n=5, control period 14.55 ± 0.33): 11.16 ± 0.52 ml/mouse/day
- urine glucose concentration ([6]; 0.05% in diet, one week, n=5, control period 130.6 ± 5.7): 106.3 ± 2.9 mg/mL
- urine glucose ([6]; 0.05% in diet, one week, n=5, control period 1129 ± 96): 554 ± 43 mg/mouse/day
- diet intake ([6]; 0.05% in diet, treatment period one week, n=5, control period 4.85 ± 0.06, NS): 4.26 ± 0.39 g/mouse/day
- drinking water, change ([6]; vs control period): -23.30%
- urine glucose concentration, change ([6]; vs control period): -18.6%
- urine glucose, change ([6]; vs control period): -50.9%
- urine volume, change ([6]; vs control period): -39.5%
- blood glucose and plasma triglyceride (in words) ([7]; 0.05% in diet, one week): could inhibit significantly the increase in the levels of blood glucose and triglyceride in plasma
- free aliphatic acid in plasma ([7]; 0.05% in diet, one week, control 22.4 ± 1.4): 20.5 ± 1.2 mg/dL
- plasma glucose ([7]; 0.05% in diet, one week, control 453.6 ± 38.0): 351.3 ± 23.0 mg/dL
- free aliphatic acid in plasma, change ([7]; vs control): -8%
- plasma glucose, change ([7]; vs control): -23%
- plasma lipid and glucose levels (in words) ([8]; 0.05% in diet, one week): could reduce significantly the high plasma lipid and glucose levels
- plasma free fatty acid ([8]; 0.05% in diet, one week, n=7, control 27.7 ± 1.8): 26.1 ± 1.4 mg/dL
- plasma triglyceride ([8]; 0.05% in diet, one week, n=7, control 170.7 ± 16.3): 115.5 ± 14.9 mg/dL
- immunoreactive insulin in plasma ([8]; 0.05% in diet, one week, n=7, control 236.6 ± 91.0): 257.3 ± 91.3 μU/ml
- plasma glucose ([8]; 0.05% in diet, one week, n=7, control 453.6 ± 38.0): 351.3 ± 23.0 mg/dL
- plasma glucose, change ([8]; vs control): -23%
- plasma triglyceride, change ([8]; vs control): -32.3%
- lipid level in serum (in words) ([9]; 0.05% in diet, one week): could also reduce the lipid level in serum
- free fatty acid in serum ([9]; 0.05% in diet, one week, n=8, control 25.3 ± 1.62): 21.2 ± 0.62 mg/dL
- neutral fat in serum ([9]; 0.05% in diet, one week, n=8, control 134.7 ± 8.6): 102.0 ± 10.5 mg/dL
- total cholesterol in serum ([9]; 0.05% in diet, one week, n=8, control 135.9 ± 4.8): 106.7 ± 5.5 mg/dL
- serum glucose ([9]; 0.05% in diet, one week, n=8, control 293.0 ± 13.3): 228.0 ± 16.8 mg/dL
- free fatty acid in serum, change ([9]; vs control): -16.3%
- neutral fat in serum, change ([9]; vs control): -24.3%
- serum glucose, change ([9]; vs control): -22.2%
- total cholesterol in serum, change ([9]; vs control): -21.5%

SMILES: CC(/C=C/[C@@]1(C)[C@H](C)CCC(=O)[C@@H]1C)=C\Cc1c(O)c(Cl)c(C)c(C=O)c1O [Ascochlorin]
- toxicity to the circulatory system [10]: highly toxic to the circulatory system of mammals
- anti-viral and anti-tumor effects [11]: high anti-viral and anti-tumor effects

SMILES: COc1c(Cl)c(C)c(C=O)c(O)c1C/C=C(C)/C=C/C1(C)C(C)CCC(=O)C1C (centres unmarked)
- level in blood [12]: not easily increased even if it is administered systemically or orally
- water solubility [13]: low in water solubility
